Laboratory results as given in patent publication US8076363B2, “Isothiazolone-containing preservative with improved effectiveness” (Air Liquide Sante (International), priority 2005, dated 2011).

Key:
[1] = tested on: mixed suspension of test germs (bacteria, yeasts, fungi); test: Preserving effect under repeated inoculation in humectant formulation 6940; assay type: cell-based; set-up: key: −=no growth; ++=moderate growth; +++=massive growth
Description: B) Humectant Formulation 6940
In accordance with Seppic formulation procedure, without preservative.
(§1) Using the described method, the effectiveness of chemical preservatives is tested with regard to the pack preservation for cosmetic formulations. For this purpose, in various experimental batches, the preservatives to be investigated are added to the unpreserved samples in various concentrations. A continuous germ burden is achieved by periodically inoculating the experimental batches. In parallel to the inoculation, streaks of each of the individual batches are in each case made immediately beforehand. Assessment is made by reference to the microbial growth of the streaks.
The bacteria are streaked uniformly over the entire surface of a CS nutrient medium using a sterile glass rod and incubated for 24 h at 30±1° C. The yeast C. albicans is streaked using a sterile glass rod on a Sabouraud nutrient medium and incubated for 48 h at 30±1° C.
The fungi A. niger and P. funiculosum are streaked using a sterile glass rod on one (A. niger) or two (P. funiculosum) Sabouraud plates (comprising 100 μg/ml of gentamycin and 50 μg/ml of chloramphenicol) and incubated for 7 to 14 days at 25±2° C.
To prepare the mixed suspensions, the bacteria, per strain one plate, are rinsed off with 5 ml of a sterile 0.85% NaCl solution per CSA plate, (sterile) filtered through a sterile glass funnel containing glass wool and made up to 150 ml with 0.85% NaCl solution. This bacteria suspension has a titre of ˜10^10 CFU/ml.
The yeast C. albicans is likewise rinsed off with 10 ml of sterile 0.85% NaCl solution from a Sabouraud plate and (sterile) filtered through a sterile glass funnel containing glass wool. 10 ml of each of the fungi suspensions (A. niger and P. funiculosum) prepared as described above are added to this suspension. 3 ml of the bacteria suspension prepared as described above (titre ˜10^10 CFU/ml) are added. The resulting mixed suspension is made to 150 ml with sterile 0.85% NaCl solution.
The bacteria titre of the mixed suspension is ˜10^8 CFU/ml. The titre for C. albicans in the mixed suspension is ˜10^8 CFU/ml. The titre for A. niger and P. funiculosum in the mixed suspension is ˜10^6 CFU/ml.
In separate batches, 25 or 50 g of the material to be preserved are in each case admixed with varying concentrations of the preservative to be investigated. The growth control used in each case is an unpreserved product sample.
The test batches are streaked onto CS and Sabouraud nutrient media once per week, the first streaking being carried out directly prior to reinoculation; these batches are then inoculated with the mixed suspension (in the case of 25 g samples with 0.1 ml, in the case of 50 g samples with 0.2 ml). The inoculated samples are incubated at 25° C.±2° C. over the entire experimentation period.
The microbial growth of the streaks incubated at 25° C.±2° C. is assessed after 3 to 4 days. To be on the safe side, negative streaks are observed for a further 2 days and reassessed. The preserving effect of the individual product concentrations is assessed in a semiquantitative method by means of the growth of the individual streaks according to the grading from “−” via “+” to “+++”. The test is usually carried out over 6 inoculation cycles or terminated after massive growth (+++) on two occasions.
(§2) If even after five successive inoculation cycles growth can be detected neither in the preserved samples nor in the unpreserved product sample (blank value), then the inoculation in the sixth inoculation cycle is carried out with five times the amount of the mixed suspension (0.5 ml in the case of 25 g samples, 1 ml in the case of 50 g samples).
A preservative is considered good if it exists under the laboratory conditions given above for a period of 6 weeks without germ infestation of the sample batches, i.e. even after the sixth inoculation, no microbial growth can be detected.

[2] = tested on: mixed suspension of test germs (bacteria, yeasts, fungi); test: Preserving effect under repeated inoculation in the standard gel; assay type: cell-based; set-up: key: −=no growth; −=slight growth; ++=moderate growth; +++=massive growth; conditions: preservative 0.1%
Description: CARBOPOL is dispersed in glycerol. In batches, the water and then NaOH are added thereto. The gel immediately becomes thick.
as §1, with “streaks. […]” for “streaks.”
The microbial growth of the streaks incubated at 25° C.±2° C. is assessed after 3 to 4 days. […] The preserving effect of the individual product concentrations is assessed in a semiquantitative method by means of the growth of the individual streaks according to the grading from “−” via “+” to “+++”. […]
as §2, with “samples). […]” for “samples).”

CCCCC(CC)COCC(O)CO (centres unmarked) [SENSIVA, 1-(2-ethylhexyl) glycerol ether]
microbial growth of the streaks ([1]; formulation 6940, preservative 0.1%, 4 days): − | microbial growth of the streaks ([1]; formulation 6940, preservative 0.1%, 10 days): +++ | microbial growth of the streaks ([1]; formulation 6940, preservative 0.1%, 17 days): +++ | microbial growth of the streaks ([1]; formulation 6940, preservative 0.2%, 4 days): − | microbial growth of the streaks ([1]; formulation 6940, preservative 0.2%, 10 days): +++ | microbial growth of the streaks ([1]; formulation 6940, preservative 0.2%, 17 days): +++ | microbial growth of the streaks ([1]; formulation 6940, preservative 0.3%, 4 days): − | microbial growth of the streaks ([1]; formulation 6940, preservative 0.3%, 10 days): +++ | microbial growth of the streaks ([1]; formulation 6940, preservative 0.3%, 17 days): +++ | microbial growth of the streaks ([2]; 10 days): +++ | microbial growth of the streaks ([2]; 17 days): +++
